Results taken from ChEMBL document CHEMBL3507680, “University of Dundee, Gates Library screen for HepG2 cell viability”.

Test: Human HepG2 cell viability assay in 384 well format
Assay type: toxicity, cell-based
Design: dose 125 nL, time 70.5 hour; cytotoxicity at 70.5 h: concentration not given beside the values
Conditions: HepG2 cells, read-out: Inhibition

Structure (SMILES)	cytotoxicity at 70.5 h
Cc1cc(=O)n2nc(Oc3ccc(C#N)cc3Cl)sc2n1	-28%
CCN(CC)S(=O)(=O)c1ccc(CNC(=O)c2cc(C)on2)cc1	-2.55%
O=C(NCCN1CCOCC1)Nc1cc(F)ccc1-n1cccn1	-0.85%
NC(=O)CN1CCC(Nc2ccnc3ccc(Cl)cc23)CC1	-1.05%
Cc1ccc(S(C)(=O)=O)cc1C(=O)NS(=O)(=O)c1ccc(Cl)cc1	-4.48%
Cc1nn(C)cc1C(=O)N1CCC(CSc2ccccc2)C1 (stereo unspecified)	-1.58%
Cc1cccc(-c2nc(C)nn2CN2CCN(c3ncccn3)CC2)c1	-5.76%
Cc1csc(N2CCCN(C(=O)CCN3CCCC3=O)CC2)n1	-8.02%
CCc1ncnc(N(C)CC2CCCCO2)c1F (stereo unspecified)	2.36%
Cc1ncsc1C(=O)NCCN1CCCCCC1=O	-12.3%
COCCN(C)c1cnn(C)c(=O)c1Br	-14.7%
CC(c1ncc(-c2ccccc2)o1)N1CCN(C(=O)N(C)C)CC1 (stereo unspecified)	-2.55%
CN(CCc1ccccn1)c1cnn(C)c(=O)c1Br	-11.5%
Cc1cc(=O)n2nc(Oc3cccc(C(N)=O)c3)sc2n1	-25%
Cc1cc(=O)n2nc(Oc3ccc(F)c(F)c3)sc2n1	40.7%
Cc1cc(=O)n2nc(Oc3cc(Cl)cc(Cl)c3)sc2n1	-19.3%
Cc1ncsc1C(=O)NCCCN1CCCCCC1=O	-7.13%
CC(C)Oc1ncccc1CNC(=O)NC(C)c1cccs1 (stereo unspecified)	-21%
O=C(NCc1cc(Br)cs1)Nc1cn[nH]c1	-23.7%
O=C(NCc1csc(Br)c1)Nc1cn[nH]c1	39.3%
Cc1cc(Cl)c(C)c(S(=O)(=O)N2CCN(Cc3ccncc3)CC2)c1Cl	-25.9%
CC(=O)N1CC[C@@H]2O[C@H](C(=O)Nc3nc(C)cs3)C[C@@H]21	-3.43%
CCN(C(=O)c1nc2c(s1)CCCN2S(C)(=O)=O)C(C)C	13.1%

Structure (SMILES)	cytotoxicity at 70.5 h
c1cc(COC[C@@]23CCC[C@@H]2CN(C2CCOCC2)C3)ccn1	-2.91%
O=C1CO[C@@H]2CN(S(=O)(=O)c3ccccc3F)C[C@H]2N1	-3.37%
Cn1cc(CN2CCc3onc(C(=O)Nc4cccnc4)c3C2)cn1	-3.27%
CN(C)C(=O)[C@H]1CCS(=O)(=O)[C@@H]2CN(c3ncc(F)cn3)C[C@H]12	23.5%
O=S(=O)(c1cccs1)N1Cc2nc(COCC3CC3)oc2C1	-5.06%
CC(=O)N1CCC2(CC1)CN(C(C)C)c1ccc(F)cc12	-1.77%
Cc1ccc2c(c1)C1(CCN(C(N)=O)CC1)CN2CC1CC1	-1.07%
CC(C)N(C)Cc1ncn2c1CN(C(=O)C1CCCO1)CCC2 (stereo unspecified)	-0.921%
c1cc2nc(C3CCNCC3)nn2cc1NC1CCC1	23.2%
CCc1ncnc2c1CCN(S(=O)(=O)c1ccccc1)CC2	3.38%
CN(C)C[C@@H]1C[C@@H]2CN(Cc3nccn3C)CC[C@@H]2N1CC1CC1	-0.157%
CCS(=O)(=O)N1Cc2cncn2CC(C(=O)NCC2CC2)C1 (stereo unspecified)	1.86%
Cn1cc(C2COC3(CCN(C(=O)Cc4ccccc4)CC3)C2)cn1 (stereo unspecified)	-8.09%
Cc1cccc(S(=O)(=O)N2Cc3nccn3CC(CN(C)C)C2)c1 (stereo unspecified)	-8.23%
O=C1N(c2ccsc2)CCC12CCCN(c1ncc(F)cn1)C2 (stereo unspecified)	-9.83%
CCOCC1CN(S(=O)(=O)c2ccccc2)Cc2nccn2C1 (stereo unspecified)	13.5%
COCC1CC2(CCN(Cc3nc(C)cs3)CC2)CO1 (stereo unspecified)	-8.71%
CCS(=O)(=O)N1CCc2c(COCc3ccncc3)cncc2C1	18.9%
CN(C)CCNCC1COCc2c(-c3ccnn3C)nnn2C1 (stereo unspecified)	16.1%
CC(=O)N1CCC2(CC1)c1ncc(-c3ccc(F)cc3)n1CCN2C	-3.18%
O=C(NCc1ccccc1)N1CCc2ncnc(NC3CC3)c2CC1	-3.8%
CC(C)CN1C[C@H]2N(c3ncccn3)CCC[C@@]2(C(=O)NCC2CC2)C1	-3.44%
CC1(C)CC1(C(=O)N1CC(c2cccnc2)C1)c1ccc(F)cc1 (stereo unspecified)	29.7%

Structure (SMILES)	cytotoxicity at 70.5 h
CC(C)[C@@H]1CN(C2CCN(Cc3ccccc3)CC2)C[C@H]1NS(C)(=O)=O	0.292%
OCC1(O)CCN(c2ccnc3c(C(F)(F)F)cccc23)CC1	-3.41%
CC(=O)c1cnc(N(C)Cc2cc(C)cc(C)n2)nc1C	-8.24%
COC(=O)CCCn1ccnc1-c1ccccc1	-3.23%
O=C(O)c1cccc(N2C[C@H](NC(=O)C3CCOCC3)[C@@H](C3CC3)C2)n1	-4.78%
Cc1cc(N2CCC(c3nccn3Cc3cscn3)CC2)ccn1	-3.14%
CCC(CC)CN1CCC2(CCC(=O)N2OCc2ccccc2F)CC1	21.6%
CCOC(=O)c1coc(N2CCC(N3CCC(O)CC3)CC2)n1	-7.59%
CS(=O)(=O)N1CCC(N2CCCC2c2ccccn2)CC1 (stereo unspecified)	2.33%
CN1CC(c2ccccc2)CC2(CCN(C(=O)c3ccccc3)CC2)C1 (stereo unspecified)	-5.15%
Nc1ccnc(N2C[C@H](O)[C@@H](N3CCN(c4ccccn4)CC3)C2)n1	-17.6%
Cc1nn2c(N3CCC(C#N)CC3)cc(-c3ccccc3)nc2c1C	1.27%
Cn1ccnc1SCCNC1CCN(c2nc3ccccc3s2)CC1	-1.58%
Cc1nc(C(C)C)ncc1C(=O)N1CCc2c(nc(N(C)C)[nH]c2=O)C1	-4.39%
CCc1nn(C)c(Cl)c1CN1CCC(Cc2nncn2C)CC1	-3.75%
CSCc1nc(CCNC(=O)C2CCCN(C(C)=O)C2)cs1 (stereo unspecified)	-2.37%
CCN1CC2(CCC1=O)CCN(Cc1nncn1C)CC2	-5.87%
O=C(NCCc1nccs1)C1CCCN(Cc2ccco2)C1 (stereo unspecified)	-2.53%
CCOc1ccc(CN2CCCC(c3nn(C)c(=O)n3CC)C2)cn1 (stereo unspecified)	-6.89%
Cc1noc(-c2ccc(N3CCN(Cc4nccn4C)CC3)nc2)n1	-15.7%
Fc1ccc(-c2cc(NCCC3CCOC3)n3nccc3n2)cc1 (stereo unspecified)	0.148%
COC(C)(C)C(=O)N[C@H]1CN(c2nccnc2N(C)C)C[C@@H]1C(C)C	-5.98%
CC(C)c1nc(CCn2cncn2)n(-c2ccc3c(c2)OCCO3)n1	-12.6%

Structure (SMILES)	cytotoxicity at 70.5 h
CC(C)CCNC(=O)C(c1cccc(F)c1)N(C)C (stereo unspecified)	3.05%
c1cc2c(c(-c3cc(N4CCOCC4)ncn3)c1)CCNC2	-7.28%
CCCOC1CCCN(c2ccnc(C(=O)NCc3ccco3)c2)C1 (stereo unspecified)	-8.53%
CN1CCC(O)(CCNC(=O)[C@@]23CNC[C@@H]2CN(C2CCCC2)C3)CC1	11.4%
c1ccc2c(c1)CC(n1ccnc1-c1cc3n(n1)CCCNC3)CO2 (stereo unspecified)	-6.83%
O=C(CC1CC1)N(Cc1cccnc1)CC1CCN(C2CCCC2)CC1	-1.09%
Cc1cccc2c(=O)n(C(C)Cc3cccnc3)cnc12 (stereo unspecified)	-8.06%
COCCCn1c(CN2CCSCC2)cnc1S(=O)(=O)C1CCCC1	-2.29%
CC(C)CCCC1CN(C(=O)c2cnc[nH]2)CCO1 (stereo unspecified)	-11.4%
Cc1cc(C)c2c(N3CCN(Cc4ncccc4C)CC3)ncnc2n1	-8.35%
Cc1nc2cc(C(=O)N3C[C@@H](NS(C)(=O)=O)[C@H](C(C)C)C3)ccc2[nH]1	18.5%
Cc1cc(C)c2nc(CN3CCOCC(O)C3)cc(O)c2c1 (stereo unspecified)	-0.735%
CCN(Cc1nc(COC)no1)Cc1cccnc1NC	-21.9%
Cn1cc(C(=O)NCc2cncc3c2CCN(S(C)(=O)=O)C3)cn1	0.567%
Cn1cc(C(=O)NCc2cncc3c2CCN(c2ccccn2)C3)cn1	17.4%
COCC1COCCC12CCN(S(=O)(=O)c1cccnc1)CC2 (stereo unspecified)	-1.01%
Cc1noc(C)c1CN1CCn2cc(CN3CCCCC3)nc2C1	-3.15%
CN1C(=O)CCC12CCCN(C(=O)c1ccncc1F)C2 (stereo unspecified)	-5.46%
Cn1cnc(S(=O)(=O)N2CC3(CCN(c4ccccc4)C3)C2)c1	20.3%
c1ccc(N2CCOC3(CCCN(c4ncccn4)C3)C2)nc1 (stereo unspecified)	-5.71%
Cc1ccc(N2CCC3(CCC(=O)N3Cc3ccncc3)CC2)nn1	0.778%
O=C(c1ccco1)N1CC[C@@H]2CN(C3CCOCC3)CCO[C@@H]2C1	0.698%
CC1c2ncc(Cn3cccn3)n2CCN1c1ncccn1 (stereo unspecified)	-8.84%

Structure (SMILES)	cytotoxicity at 70.5 h
CN(C)c1nc(N2CCCC2)nc2c1CCN(Cc1nccn1C)CC2	8.52%
CCCN1CCC(c2nc3ccc(-c4ccccc4)cn3n2)CC1	-10.7%
O=C(C1CCOC1)N1C[C@H]2CN(Cc3ccncc3)C(=O)[C@H]2C1 (stereo partly specified)	-9.99%
CCN(C)c1ncnc2c1CCN(S(=O)(=O)c1ccccc1)CC2	-5.89%
CC(=O)N1CCC(c2nc3ccc(NC4CCC4)cn3n2)CC1	-5.56%
Cc1ccc(CS(=O)(=O)N2Cc3c(CN(C)C)nn(C)c3C2)cc1	-4.61%
O=c1cc(CNS(=O)(=O)C2CC2)nc2n1CCCN(CC1CC1)C2	-5.1%
CN(C)CCN1C[C@@H]2CN(c3ccccc3)C[C@@H]2C1=O	23.6%
CN1C[C@H]2N(c3ncccn3)CCC[C@@]2(C(=O)NCC2CC2)C1	-6.84%
O=C(NCc1cccnc1)N1CCc2ncnc(NC3CC3)c2CC1	11.7%
Cc1cccc(N2CC[C@H]3[C@H](CO[C@@H]3CN(C)Cc3ccco3)C2)n1	2.69%
Cc1ccc(N2CC[C@H]3CO[C@H](CN(C)Cc4ccco4)[C@H]3C2)nn1	-0.777%
CCOC(=O)[C@]12CCCN(Cc3cccs3)C[C@H]1CN(C(C)C)C2	1.55%
Cc1ccc(CN2C[C@H](OCCN(C)C)[C@H]3COC[C@H]32)o1	-0.961%
c1coc(CN2C[C@@H]3CN(Cc4ccoc4)CCO[C@@H]3C2)c1	-1.5%
Cn1cnc(S(=O)(=O)N2CC3(CCN(CC4CC4)C3)C2)c1	14.6%
CCCN1CCC(c2nc3ccc(-c4ccncc4)cn3n2)CC1	19.7%
Cc1noc(C)c1CN1CCc2ncnc(-c3cccnc3)c2CC1	-0.64%
O=C(C1CCCO1)N1CCC2(CC1)COCCN(Cc1cccnc1)C2 (stereo unspecified)	-2.16%
